Reference: patent publication US11857550B2, “Benzathine analogs” (University of Pittsburgh—Of the Commonwealth System of …, priority 2012, dated 2024)

Tested on: C57BL6 mice
Assay type: in vivo
Conditions: 30 ug/ml in drinking water, day 5

In the case of `c1ccc(-c2ccc(CNCCNCc3ccc(-c4ccccn4)cc3)cc2)nc1` [BC-1215], the lung resistance is reported as “decreased lung resistance”.
